In US6380178B1, “Cyclic regimens using cyclocarbamate and cyclic amide derivatives” (American Home Products Corporation, priority 1999, dated 2002):

| melting point | Compound |
| --- | --- |
| 149 to 150 °C | CC1(C)OC(=O)Nc2sc(-c3cccc(Cl)c3)cc21 [Example 1, 6-(3-chlorophenyl)-1,4-dihydro-4,4-dimethyl-2H-thieno[2,3-d][1,3]oxazine-2-one] |
| 123 to 125 °C | CC1(C)OC(=O)Nc2cc(-c3cccc(Cl)c3)sc21 [Example 2, 6-(3-chlorophenyl)-1,4-dihydro-4,4-dimethyl-2H-thieno[3,2-d][1,3]oxazine-2-one] |
